Data on 1 compound can be found in patent US20220119868A1, “PROFILING RNA-SMALL MOLECULE BINDING SITES WITH OLIGONUCLEOTIDES” (priority 2018, published 2022).

For one test, the target named is CHK1 (Homo sapiens, UniProt O14757). The experiment in a line: In vitro inhibition of a panel of kinases. In kind it is biochemical. The following applies: 20 μM. The text has this:
(§1) Effect of compounds on HCV replication. […] Cytotoxicity assays. […] Oligonucleotide profiling of target engagement in vitro. […] Primers can be found in Table 4. […] Inhibition of kinases. […] . Figure S7C).

For test [1], the system named is WT SLI RNA (HCV SL I model). Kind of test: Oligonucleotide profiling of target engagement in vitro (RNase H cleavage). In kind it is biochemical, Hepatitis C virus. The following applies: antisense oligonucleotide and RNase H.
From the text: Compound 8 binds the desired site in HCV RNA in vitro and in cells. To validate that the lead compounds bind to the desired site in the HCV RNA genome, an approach to profile binding site by using an antisense oligonucleotide was developed (FIG. 8A). Antisense oligonucleotides bind to complementary RNAs and recruit RNase H, which cleaves the RNA strand. Upon small molecule binding, the RNA's structure is stabilized, making it more difficult for the oligonucleotide to invade the structure. Thus, small molecule binding sites can be read out by inhibition of oligonucleotide cleavage. For in vitro studies, a small segment of the target site was transcribed that folds into the desired structure.
(§2) Application of an antisense agent (Table 4) and RNase H cleaves the RNA at the desired site. […] Additional control experiments were completed in which the RNA was mutated to remove 8's binding site and the corresponding complementary oligonucleotide to induce RNase H cleavage.
as §1

Test [2] deals with BP-SLI RNA (mutated SL I). The experiment in a line: Oligonucleotide profiling in vitro, control RNA mutated to remove 8's binding site. In kind it is biochemical, Hepatitis C virus. The following applies: complementary oligonucleotide.
From the text: as §2, §1

Test [3] relates to SL I site of HCV RNA in replicon cells. The experiment in a line: Oligonucleotide profiling of target engagement in cells by RT-qPCR. In kind it is cell-based, Hepatitis C virus. The source says:
Given these favorable results in vitro, the competitive cleaving approach was used to map cellular ligand binding sites. […] Previous approaches to map small molecule-RNA binding sites, such as Chemical Cross-Linking and Isolation by Pull-down (Chem-CLIP)59-61 and Small Molecule Nucleic Acid Profiling by Cleavage Applied to RNA (Ribo-SNAP)61, require the synthesis of derivatives of the lead molecules that allow them to cross-link or cleave and RNA target, respectively. […] Guan, L. and Disney, M. D. (2012). Recent advances in developing small molecules targeting RNA. ACS Chem. Biol. 7, 73-86. • 2. Thomas, J. R. and Hergenrother, P. J. (2008). Targeting RNA with small molecules. Chem. Rev. 108, 1171-1224. • 3. Blount, K. F. and Breaker, R. R. (2006). Riboswitches as antibacterial drug targets. Nat. Biotechnol. 24, 1558-1564. • 4. Tenson, T. and Mankin, A. (2006). Antibiotics and the ribosome. Mol. Microbiol. 59, 1664-1677. • 5. Schlunzen, F., Zarivach, R., Harms, J., Bashan, A., Tocilj, A., Albrecht, R., Yonath, A. and Franceschi, F. (2001). Structural basis for the interaction of antibiotics with the peptidyl transferase centre in eubacteria. Nature 413, 814-821. • 6. Hermann, T. (2016). Small molecules targeting viral rna. Wiley Interdiscip. Rev. RNA 7, 726-743. • 7. Ohgushi, M., Kuroki, S., Fukamachi, H., O'Reilly, L. A., Kuida, K., Strasser, A. and Yonehara, S. (2005). […]
On the technique in general: Real-time PCR tracks product formation cycle by cycle.

CHK1, sequence (O14757 whole entry): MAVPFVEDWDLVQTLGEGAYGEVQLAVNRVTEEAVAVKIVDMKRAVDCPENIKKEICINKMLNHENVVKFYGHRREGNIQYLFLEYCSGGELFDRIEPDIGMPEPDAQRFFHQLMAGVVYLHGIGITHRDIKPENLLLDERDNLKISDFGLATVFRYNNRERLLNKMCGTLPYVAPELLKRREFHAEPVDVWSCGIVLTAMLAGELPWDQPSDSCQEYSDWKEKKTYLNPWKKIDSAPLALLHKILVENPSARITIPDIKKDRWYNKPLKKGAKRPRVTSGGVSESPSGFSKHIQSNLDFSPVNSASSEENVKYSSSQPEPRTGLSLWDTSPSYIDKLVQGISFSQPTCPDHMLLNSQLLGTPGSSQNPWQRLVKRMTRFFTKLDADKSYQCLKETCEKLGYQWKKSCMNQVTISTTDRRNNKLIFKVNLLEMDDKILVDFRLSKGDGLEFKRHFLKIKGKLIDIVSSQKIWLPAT

For the compound `O=C(Nc1ccc(C2=NCCN2)cc1)c1cc(C(=O)Nc2ccc(C3=NCCN3)cc2)cc(C(=O)Nc2ccc(C3=NCCN3)cc2)c1` [Compound 8], the “inhibition of CHK1 in vitro” value on CHK1 is “inhibited”. For the same compound, in test [1], the “inhibition of antisense/RNase H-mediated cleavage of SL I in vitro” value was “limited the ability of the antisense to mediate cleavage of the target”. Also, the “effect on antisense/RNase H cleavage of mutated RNA” value in test [2] was “the extent and pattern of cleavage were similar in the absence and the presence of compound 8”. The “rescue of ASO-induced cleavage in cells” value in test [3] (Control ASO complementary to a downstream site) was “does not rescue cleavage”. Also, the “inhibition of ASO-induced cleavage in cells” value in test [3] (antisense oligonucleotide overlapping the 8-binding site (SL I ASO)) is “inhibited cleavage”.
